Reference: patent US11267824B2, “Inhibitors of indoleamine 2,3-dioxygenase and/or tryptophan 2,3-dioxygenase” (IDORSIA PHARMACEUTICALS LTD, priority 2017, dated 2022)

What was measured:
[1] = target: Recombinant full-length human IDO1 (Homo sapiens (Human), UniProt P14902); experiment: IDO1 enzymatic assay (IDO inhibitory activity); type: biochemical; conditions: 2 nM enzyme, 5 μM L-tryptophan, pH6.5, 30 min pre-incubation, NFK quantified by LCMS; mean values if measured multiple times; read-out: hIDO activity (IC50 in nM)
Chain of Recombinant full-length human IDO1 (P14902 whole entry): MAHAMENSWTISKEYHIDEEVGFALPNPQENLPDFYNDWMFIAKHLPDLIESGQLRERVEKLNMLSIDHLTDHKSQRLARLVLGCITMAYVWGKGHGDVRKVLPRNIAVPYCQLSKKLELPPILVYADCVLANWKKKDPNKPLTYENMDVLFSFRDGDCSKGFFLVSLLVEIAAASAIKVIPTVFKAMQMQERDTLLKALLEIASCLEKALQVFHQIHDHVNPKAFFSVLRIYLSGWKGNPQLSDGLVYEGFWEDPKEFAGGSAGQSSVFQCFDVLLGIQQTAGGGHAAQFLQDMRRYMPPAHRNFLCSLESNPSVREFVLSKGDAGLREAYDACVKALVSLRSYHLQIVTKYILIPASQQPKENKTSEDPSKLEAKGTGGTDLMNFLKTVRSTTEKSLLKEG
Method: 1) Testing Compounds for IDO Inhibitory Activity in an IDO1 Enzymatic Assay:
Recombinant full-length human IDO1 with a N-terminal hexahistidine tag expressed in E. coli and purified to homogeneity is incubated at a final concentration of 2 nM in assay buffer consisting of 37.5 mM phosphate buffer at pH6.5 supplemented with 10 mM sodium L-ascorbate, 0.45 μM methylene blue, 50 U/ml catalase, 0.01% BSA, and 0.01% Tween 20 (protocol modified from Seegers et al, JBS 2014). Example compounds are serially diluted in DMSO, further diluted in phosphate buffer, and added to the enzyme at final concentrations ranging from 10 μM to 0.5 nM. The final DMSO concentration is 0.6%. Following a pre-incubation of 30 minutes at RT, the reaction is started by the addition of L-tryptophan at a final concentration of 5 μM in assay buffer. After 30 minutes of incubation at RT, 3 μL of the reaction mixture are transferred to a 384 deep well plate containing 25 μL of deionized water. 100 μl of 200 nM L-Tryptophan-(indole-d5) in cold 100% methanol are added followed by a 10 minutes centrifugation at 4,000 rpm at 4° C. An additional 75 μL of deionized water are then added and followed by a 10 minutes centrifugation at 4,000 rpm at 4° C. The product of the reaction N′-Formylkynurenine (NFK) is quantified by LCMS and normalized to the L-Tryptophan-(indole-d5) signal. Samples with 0.6% DMSO (0% effect) and a TDO/IDO inhibitor (100% effect) are used as control samples to set the parameters for the non-linear regression necessary for the determination of the half-maximal inhibitory concentration (IC50) for each compound. For each compound concentration the percentage of activity compared to 0% and 100% effect is calculated as average ±STDEV (each concentration measured in duplicate). IC50 values and curves are generated with XLfit software (IDBS) using Dose-Response One Site model 203 (four parameter logistic curve model). When compounds are measured multiple times, mean values are given.

[2] = target: Recombinant human TDO comprising amino acids 19-407 (Homo sapiens (Human), UniProt P48775); experiment: TDO2 enzymatic assay (TDO inhibitory activity); type: biochemical; conditions: 15 nM enzyme, 200 μM L-tryptophan, pH7, 30 min pre-incubation, NFK quantified by LCMS; mean values if measured multiple times; read-out: hTDO activity (IC50 in nM)
Chain of Recombinant human TDO comprising amino acids 19-407 (P48775 19-406 limits assumed): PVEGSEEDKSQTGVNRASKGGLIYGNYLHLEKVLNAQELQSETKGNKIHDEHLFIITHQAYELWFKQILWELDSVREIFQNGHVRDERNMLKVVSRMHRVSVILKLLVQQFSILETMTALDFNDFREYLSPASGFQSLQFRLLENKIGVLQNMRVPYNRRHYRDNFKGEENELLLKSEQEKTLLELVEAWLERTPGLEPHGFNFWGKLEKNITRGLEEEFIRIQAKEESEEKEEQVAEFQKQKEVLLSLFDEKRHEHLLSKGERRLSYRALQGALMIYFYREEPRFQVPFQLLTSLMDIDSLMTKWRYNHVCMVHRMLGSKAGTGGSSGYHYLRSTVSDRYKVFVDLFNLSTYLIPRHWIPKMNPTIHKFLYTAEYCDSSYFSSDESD
Method: 2) Testing Compounds for TDO Inhibitory Activity in a TDO2 Enzymatic Assay:
Recombinant human TDO comprising amino acids 19-407 with a N-terminal hexahistidine tag expressed in E. coli and purified to homogeneity is incubated at a final concentration of 15 nM in assay buffer consisting of 75 mM phosphate buffer at pH7 supplemented with 100 μM ascorbic acid, 50 U/ml Catalase, 0.01% BSA, and 0.01% Tween 20 (protocol modified from Seegers et al, JBS 2014). Example compounds are serially diluted in DMSO, further diluted in phosphate buffer, and added to the reaction mixture at final concentrations ranging from 10 μM to 0.5 nM. The final DMSO concentration is 0.6%. Following a pre-incubation of 30 minutes at RT, the reaction is started by the addition of L-tryptophan at a final concentration of 200 μM in assay buffer. After 30 minutes of incubation at RT, 3 μL of the reaction mixture are transferred to a 384 deep well plate containing 25 μL of deionized water. 100 μl of 200 nM L-Tryptophan-(indole-d5) in cold 100% methanol are added followed by a 10 minutes centrifugation at 4,000 rpm at 4° C. An additional 75 μL of deionized water are then added and followed by a 10 minutes centrifugation at 4,000 rpm at 4° C. The product of the reaction N′-Formylkynurenine (NFK) is quantified by LCMS and normalized to the L-Tryptophan-(indole-d5) signal. Samples with 0.6% DMSO (0% effect) and a TDO/IDO inhibitor (100% effect) are used as control samples to set the parameters for the non-linear regression necessary for the determination of the half-maximal inhibitory concentration (IC50) for each compound. For each compound concentration the percentage of activity compared to 0% and 100% effect is calculated as average±STDEV (each concentration measured in duplicate). IC50 values and curves are generated with XLfit software (IDBS) using Dose-Response One Site model 203 (four parameter logistic curve model). When compounds are measured multiple times, mean values are given.

| Structure (SMILES) | IC50 [1] [nM] | IC50 [2] [nM] |
| --- | --- | --- |
| OC(c1c(C2CC2)sc2cncn12)C1CCCCC1 (racemic) [Example 1, rac-Cyclohexyl(2-cyclopropylimidazo[5,1-b]thiazol-3-yl)methanol] | 15.1 | 288 |
| Cc1sc2cncn2c1C(O)C1CCCCC1 (racemic) [Example 6, rac-Cyclohexyl-(2-methyl-imidazo[5,1-b]thiazol-3-yl)-methanol] | 134 | 143 |
| OC(c1c(C2CCC2)sc2cncn12)C1CCCCC1 (racemic) [Example 7, rac-(2-Cyclobutylimidazo[5,1-b]thiazol-3-yl)(cyclohexyl)methanol] | 94.2 | 324 |
| OC(CC1CCCCC1)c1c(C2CCC2)sc2cncn12 (racemic) [Example 8, rac-1-(2-Cyclobutylimidazo[5,1-b]thiazol-3-yl)-2-cyclohexylethan-1-ol] | 122 | 256 |
| OC(c1c(C2CCCC2)sc2cncn12)C1CCCCC1 (racemic) [Example 9, rac-Cyclohexyl(2-cyclopentylimidazo[5,1-b]thiazol-3-yl)methanol] | 237 | 193 |
| OC(CC1CCCCC1)c1c(C2CCCC2)sc2cncn12 (racemic) [Example 10, rac-2-Cyclohexyl-1-(2-cyclopentylimidazo[5,1-b]thiazol-3-yl)ethan-1-ol] | 384 | 277 |
| CC(C)(C)c1sc2cncn2c1C(O)C1CCCCC1 (racemic) [Example 11, rac-(2-(tert-Butyl)imidazo[5,1-b]thiazol-3-yl)(cyclohexyl)methanol] | 895 | 2050 |
| CC(C)(C)c1sc2cncn2c1C(O)CC1CCCCC1 (racemic) [Example 12, rac-1-(2-(tert-Butyl)imidazo[5,1-b]thiazol-3-yl)-2-cyclohexylethan-1-ol] | 895 | 2130 |
| OC(c1c(Cl)sc2cncn12)C1CCCCC1 (racemic) [Example 13, rac-(2-Chloroimidazo[5,1-b]thiazol-3-yl)(cyclohexyl)methanol] | 110 | 172 |
| OC(c1c(Br)sc2cncn12)C1CCCCC1 (racemic) [Example 14, rac-(2-Bromoimidazo[5,1-b]thiazol-3-yl)(cyclohexyl)methanol] | 28 | 218 |
| OC(c1cccs1)c1c(Cl)sc2cncn12 (racemic) [Example 15, rac-(2-Chloro-imidazo[5,1-b]thiazol-3-yl)-thiophen-2-yl-methanol] | 333 | 690 |
| OC(CC1CCCCC1)c1c(Cl)sc2cncn12 (racemic) [Example 16, rac-1-(2-Chloro-imidazo[5,1-b]thiazol-3-yl)-2-cyclohexyl-ethanol] | 159 | 1210 |
| OC(c1c(Cl)sc2cncn12)C1CCCCCC1 (racemic) [Example 17, rac-(2-Chloro-imidazo[5,1-b]thiazol-3-yl)-cycloheptyl-methanol] | 170 | 301 |
| OC(c1c(Cl)sc2cncn12)C1CC1 (racemic) [Example 19, rac-(2-Chloro-imidazo[5,1-b]thiazol-3-yl)-cyclopropyl-methanol] | 1040 | 2660 |

Further lines, results first:

| IC50 [1] [nM] | IC50 [2] [nM] | Structure (SMILES) |
| --- | --- | --- |
| 113 | 470 | OC(CC1CC(F)(F)C1)c1c(C2CC2)sc2cncn12 (racemic) [Example 21, rac-1-(2-Cyclopropyl-imidazo[5,1-b]thiazol-3-yl)-2-(3,3-difluoro-cyclobutyl)-ethanol] |
| 33.7 | 177 | OC(CC12CCC(CC1)C2)c1c(C2CC2)sc2cncn12 (racemic) [Example 22, rac-2-Bicyclo[2.2.1]hept-1-yl-1-(2-cyclopropyl-imidazo[5,1-b]thiazol-3-yl)-ethanol] |
| 40.5 | 204 | CC1(CC(O)c2c(C3CC3)sc3cncn23)CCCCC1 (racemic) [Example 23, rac-1-(2-Cyclopropyl-imidazo[5,1-b]thiazol-3-yl)-2-(1-methyl-cyclohexyl)-ethanol] |
| 25.6 | 394 | OC(CC1CCCC1)c1c(C2CC2)sc2cncn12 (racemic) [Example 24, rac-2-Cyclopentyl-1-(2-cyclopropyl-imidazo[5,1-b]thiazol-3-yl)-ethanol] |
| 75.2 | 775 | CC1(C)CCC(CC(O)c2c(C3CC3)sc3cncn23)CC1 (racemic) [Example 25, rac-1-(2-Cyclopropyl-imidazo[5,1-b]thiazol-3-yl)-2-(4,4-dimethyl-cyclohexyl)-ethanol] |
| 25.2 | 387 | CC1(C)CCC(C(O)c2c(C3CC3)sc3cncn23)CC1 (racemic) [Example 26, rac-(2-Cyclopropyl-imidazo[5,1-b]thiazol-3-yl)-(4,4-dimethyl-cyclohexyl)-methanol] |
| 24.3 | 470 | OC(CC1CCCCCC1)c1c(C2CC2)sc2cncn12 (racemic) [Example 28, rac-2-Cycloheptyl-1-(2-cyclopropyl-imidazo[5,1-b]thiazol-3-yl)-ethanol] |
| 63.4 | 643 | OC(c1cccs1)c1c(Br)sc2cncn12 (racemic) [Example 32, rac-(2-Bromo-imidazo[5,1-b]thiazol-3-yl)-thiophen-2-yl-methanol] |
| 55.7 | 1410 | OC(CC1CCCCC1)c1c(Br)sc2cncn12 (racemic) [Example 33, rac-1-(2-Bromo-imidazo[5,1-b]thiazol-3-yl)-2-cyclohexyl-ethanol] |
| 5.38 | 269 | CC1(C)CC(C(O)c2c(C3CC3)sc3cncn23)C1 (racemic) [Example 36, rac-(2-Cyclopropyl-imidazo[5,1-b]thiazol-3-yl)-(3,3-dimethyl-cyclobutyl)-methanol] |
| 353 | 2460 | OC(CC1CCC(c2ccccc2)CC1)c1c(C2CC2)sc2cncn12 (racemic) [Example 37, rac-1-(2-Cyclopropyl-imidazo[5,1-b]thiazol-3-yl)-2-(4-phenyl-cyclohexyl)-ethanol] |
| 41.7 | 300 | CC1(CC(O)c2c(C3CC3)sc3cncn23)CCC1 (racemic) [Example 39, rac-1-(2-Cyclopropyl-imidazo[5,1-b]thiazol-3-yl)-2-(1-methyl-cyclobutyl)-ethanol] |
| 44.9 | 697 | OC(CC1CCC1)c1c(C2CC2)sc2cncn12 (racemic) [Example 40, rac-2-Cyclobutyl-1-(2-cyclopropyl-imidazo[5,1-b]thiazol-3-yl)-ethanol] |
| 92.2 | 520 | OC(CC1CCC(C(F)(F)F)CC1)c1c(C2CC2)sc2cncn12 (racemic) [Example 42, rac-1-(2-Cyclopropyl-imidazo[5,1-b]thiazol-3-yl)-2-(4-trifluoromethyl-cyclohexyl)-ethanol] |
|  | 420 | Cc1cscc1-c1sc2cncn2c1C(O)C1CCCCC1 (racemic) [Example 128, rac-Cyclohexyl-[2-(4-methyl-thiophen-3-yl)-imidazo[5,1-b]thiazol-3-yl]-methanol] |
